In ChEMBL document CHEMBL5380859, “Bioactivity-Driven Synthesis of the Marine Natural Product Naamidine J and Its Derivatives as Potential Tumor Immunological Agents by Inhibiting Programmed Death-Ligand 1” (J Med Chem, 2023) one finds IC50, Activity and inhibition in vivo data, which are given here for 25 compounds.

Each structure is given as a SMILES string. Active and inactive are the calls of the source. No cut-off for these calls is given here.

The IC50 is the concentration at which inhibition is half-maximal. What is called inhibition in vivo is the change of the read-out against control, counted positive when it falls.

For series [1], the system named is RKO. As to the kind of experiment: Cytotoxicity against human RKO cells assessed as reduction in cell viability after 24 hrs by CCK8 assay. It is filed as functional, cell-based. On the technique in general: Formazan colour is commonly taken as a measure of viable cells.
Series [2] deals with RKO. As to the kind of experiment: Downregulation of PD-L1 expression level in human RKO cells at 10 uM incubated for 24 hrs by Western blot analysis. Type of series: functional, cell-based.
Series [3] concerns RKO. As to the kind of experiment: Downregulation of PD-L1 expression level in human RKO cells at 1 to 10 uM by Western blot analysis. Particulars: dose 1-10 µM, time 3-24 hrs, TDE = time-dependent effect. It is filed as functional, cell-based.
The test system of series [4] is RKO. The series is described as follows: Downregulation of PD-L1 expression level in human RKO cells incubated for 24 hrs by Western blot analysis. It is filed as functional, cell-based. The conditions noted are these: dose 1-10 µM.
For series [5], the system named is RKO. As to the kind of experiment: Effect on PD-L1 mRNA level in human RKO cells at 1 to 10 uM by qRT-PCR analysis. It is filed as functional, cell-based. The conditions noted are these: dose 1-10 µM.
For series [6], the system named is RKO. The series is described as follows: Downregulation of PD-L1 expression level in human RKO cells assessed as turnover rate at 5 uM incubated for 12 hrs in presence of CHX by immunoblotting analysis. It is filed as functional, cell-based. (In general: A western blot detects proteins with antibodies after separation by electrophoresis.)
The target of series [7] is Programmed cell death 1 ligand 1 (Homo sapiens) (UniProt Q9NZQ7). As to the kind of experiment: Induction of PD-L1 degradation in human RKO cells at 5 uM in presence of MG132 incubated for 24 hrs by Western blot analysis. Type of series: cell-based.
The target is the same in series [8]. The series is described as follows: Induction of PD-L1 degradation in human RKO cells at 5 uM in presence of CQ incubated for 24 hrs by Western blot analysis. Type of series: cell-based.
Series [9] shares this target. The series is described as follows: Induction of PD-L1 degradation in human RKO cells at 5 uM in presence of 3-MA incubated for 24 hrs by Western blot analysis. Type of series: cell-based.
Series [10] relates to RKO. As to the kind of experiment: Antitumor activity in human RKO cells cocultured with […] assessed as induction of T-cell mediated cell killing at 10 uM incubated for 24 hrs by crystal violet staining method. Type of series: functional, cell-based.
In series [11] the test system is MC-38. The series is described as follows: Antitumor activity against mouse MC38 cells implanted in C57BL/6 mouse assessed as reduction in tumor growth at 50 mg/kg, ip administered once daily for 16 days. It is filed as functional, organism-based. The conditions noted are these: time 16.0 day.
Series [12] deals with MC-38. As to the kind of experiment: Antitumor activity against mouse MC38 cells implanted in C57BL/6 mouse assessed as reduction in tumor growth at 25 mg/kg, ip administered once daily for 16 days. Particulars: time 16.0 day. It is filed as functional, organism-based.
Series [13] deals with MC-38. As to the kind of experiment: Antitumor activity against mouse MC38 cells implanted in C57BL/6 mouse assessed as inhibition of tumor size at 50 mg/kg, ip administered once daily for 16 days. Type of series: functional. Particulars: MC-38, 384 h, time 16 day.
Series [14] has as its system MC-38. The series is described as follows: Antitumor activity against mouse MC38 cells implanted in C57BL/6 mouse assessed as reduction in tumor weight at 50 mg/kg, ip administered once daily for 16 days and measured for every 2 days. The conditions noted are these: time 16.0 day. Type of series: functional, organism-based.
Series [15] can be described thus: Toxicity in C57BL/6 mouse implanted with mouse MC38 cells assessed as change in body weight at 50 mg/kg, ip administered once daily for 16 days and measured every 2 days. Type of series: organism-based, MC-38. The conditions noted are these: in vivo, 384 h, time 16 day.
Series [16] deals with MC-38. As to the kind of experiment: Antitumor activity against mouse MC38 cells implanted in C57BL/6J mouse assessed as increase in number of CD8 positive T cells at 50 mg/kg, ip administered once daily for 16 days by flow cytometry analysis. Type of series: functional, organism-based. Particulars: time 16.0 day.
The test system of series [17] is MC-38. As to the kind of experiment: Antitumor activity against mouse MC38 cells implanted in C57BL/6J mouse assessed as as increase in ratio of CD8 positive T cells to CD4 positive T cells at 50 mg/kg, ip administered once daily for 16 days by flow cytometry analysis. The conditions noted are these: time 16.0 day. Type of series: functional, organism-based. (In flow cytometry, cells or beads pass a laser one at a time.)

Series [18] deals with MC-38. The series is described as follows: Antitumor activity against mouse MC38 cells implanted in C57BL/6 mouse assessed as upregulation of CD3 expression at 50 mg/kg, ip administered once daily and measured after 16 days by immunohistochemistry analysis. Type of series: functional, organism-based. Particulars: time 16.0 day.
For series [19], the system named is MC-38. As to the kind of experiment: Antitumor activity against mouse MC38 cells implanted in C57BL/6 mouse assessed as downregulation of FOXP3 expression at 50 mg/kg, ip administered once daily and measured after 16 days by immunohistochemistry analysis. It is filed as functional, organism-based. The conditions noted are these: time 16.0 day.
The test system of series [20] is MC-38. As to the kind of experiment: Antitumor activity against mouse MC38 cells implanted in C57BL/6 mouse assessed as downregulation of PD-L1 expression at 50 mg/kg, ip administered once daily and measured after 16 days by immunohistochemistry analysis. It is filed as functional, organism-based. Particulars: time 16.0 day.
Series [21] deals with MC-38. The series is described as follows: Antitumor activity against mouse MC38 cells implanted in C57BL/6 mouse assessed as upregulation of cleaved caspase 3 at 50 mg/kg, ip administered once daily and measured after 16 days by immunohistochemistry analysis. Type of series: functional, organism-based. Particulars: time 16.0 day.

Programmed cell death 1 ligand 1 (Homo sapiens), sequence (Q9NZQ7 whole entry): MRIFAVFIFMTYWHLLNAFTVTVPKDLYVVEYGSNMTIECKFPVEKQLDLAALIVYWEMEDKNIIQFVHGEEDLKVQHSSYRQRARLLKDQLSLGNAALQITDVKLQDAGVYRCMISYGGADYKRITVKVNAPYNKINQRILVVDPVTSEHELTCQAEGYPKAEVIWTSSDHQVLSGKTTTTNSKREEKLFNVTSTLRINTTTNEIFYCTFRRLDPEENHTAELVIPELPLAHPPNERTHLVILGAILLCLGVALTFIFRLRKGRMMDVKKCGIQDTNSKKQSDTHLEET

On to `CNC(=O)Nc1nc(Cc2ccc(OC)cc2)c(Cc2ccc(OC)c(OC)c2)n1C`, for which the IC50 in series [1] amounted to 24.2 µM. For the same compound, in [2], the result was Active.
Consider `COc1ccc(Cc2nc(NC(=O)C3CCOCC3)n(C)c2Cc2ccc(OC)c(OC)c2)cc1`, for which, in series [1], the IC50 came to 33.3 µM. For the same compound, the result in [2] was Active.
For the compound `COc1ccc(Cc2nc(NC(=O)c3ccco3)n(C)c2Cc2ccc(OC)c(OC)c2)cc1`, the IC50 in series [1] came to 29.5 µM. Moreover, the result in [2] was Active.
For the compound `CCCCC(=O)Nc1cccc(C(=O)Nc2nc(Cc3ccc(OC)cc3)c(Cc3ccc(OC)c(OC)c3)n2C)c1`, the half-inhibitory concentration (IC50) in series [1] was determined as 5.2 µM. Moreover, the result in series [2] was Active.
For the compound `COC(=O)C12CCC(C(=O)Nc3nc(Cc4ccc(OC)cc4)c(Cc4ccc(OC)c(OC)c4)n3C)(CC1)CC2`, the 50% inhibitory concentration (IC50) in [1] came to 14.6 µM.
For `COc1ccc(Cc2nc(NC(=O)c3cccc(NC(C)=O)c3)n(C)c2Cc2ccc(OC)c(OC)c2)cc1`, the IC50 in [1] was > 40 µM.
For `CCCCC(=O)Nc1nc(Cc2ccc(OC)cc2)c(Cc2ccc(OC)c(OC)c2)n1C`, in [1], the 50% inhibitory concentration (IC50) was > 40 µM.
With `COc1ccc(Cc2nc(NC(=O)c3cccc(NC(=O)CN(C)C)c3)n(C)c2Cc2ccc(OC)c(OC)c2)cc1`, the IC50 in [1] is 5.3 µM. In series [2], the outcome was Active.
On to `COc1ccc(Cc2nc(NC(=O)c3ccc(C(C)=O)cc3)n(C)c2Cc2ccc(OC)c(OC)c2)cc1`, for which the IC50 in [1] was 26.9 µM.
For the compound `COc1ccc(Cc2nc(NC(=O)c3sc(C)nc3C(F)(F)F)n(C)c2Cc2ccc(OC)c(OC)c2)cc1`, in series [1], the IC50 was 30.8 µM. Further, in series [2], the outcome was Active.
The corresponding values for `COc1ccc(Cc2nc(NC(=O)c3ccc(OC(F)(F)F)cc3)n(C)c2Cc2ccc(OC)c(OC)c2)cc1` are 23.9 µM and “Active”.
Regarding `COc1ccc(Cc2nc(NC(=O)c3ccc(N)cc3)n(C)c2Cc2ccc(OC)c(OC)c2)cc1`, in series [1], the half-maximal inhibitory concentration (IC50) was 24.9 µM.
Turning to `COc1ccc(Cc2nc(NC(=O)c3cccc(N(C)C)c3)n(C)c2Cc2ccc(OC)c(OC)c2)cc1`, the IC50 in [1] was > 40 µM.
The same measure, in the same setting: as for `COc1ccc(Cc2nc(NC(=O)c3cccc(N)c3)n(C)c2Cc2ccc(OC)c(OC)c2)cc1`, the figure is 20.1 µM.
As for `COc1ccc(Cc2nc(NC(=O)c3ccc(F)cc3)n(C)c2Cc2ccc(OC)c(OC)c2)cc1`, the IC50 in [1] is > 40 µM.
For `COc1ccc(Cc2nc(NC(=O)C3CC4(C3)CC(F)(F)C4)n(C)c2Cc2ccc(OC)c(OC)c2)cc1`, the IC50 in series [1] was > 40 µM.
Turning to `COc1ccc(Cc2nc(NC(=O)c3cc(Br)ccc3O)n(C)c2Cc2ccc(OC)c(OC)c2)cc1`, the IC50 in series [1] was found to be 20.4 µM.
In the case of `COc1ccc(Cc2nc(NC(=O)c3ccccc3O)n(C)c2Cc2ccc(OC)c(OC)c2)cc1`, the IC50 in series [1] was > 40 µM. For the same compound, in series [2], the outcome was Active.
As to `COc1ccc(Cc2nc(NC(=O)c3ccc(NC(=O)OC(C)(C)C)cc3)n(C)c2Cc2ccc(OC)c(OC)c2)cc1`, the IC50 in series [1] came to 22.4 µM.
As to `COc1ccc(Cc2nc(NC(=O)c3cccc(NC(=O)OC(C)(C)C)c3)n(C)c2Cc2ccc(OC)c(OC)c2)cc1`, the 50% inhibitory concentration (IC50) in series [1] is 31.7 µM. In addition, the outcome in series [2], in series [7], in series [8], in series [10], in series [11] and in series [14] was Active. For the same compound, the outcome in series [16], in series [17], in series [18], in series [19], in series [20] and in [21] was Active. Moreover, the values for the Activity result in series [3], in series [4] and in [15] were “Tde”, “Dose-Dependent Effect” and “Non-Toxic”, respectively. The outcome in series [5], in [6], in [9] and in series [12] was inactive. Also, the inhibition in vivo at 50 mg/kg in series [13] was found to be 45%.
For the compound `COc1ccc(Cc2nc(NC(=O)c3cc(OC)cc(OC)c3)n(C)c2Cc2ccc(OC)c(OC)c2)cc1`, in [1], the IC50 was > 40 µM.
Still for that read-out and setting: to `COc1ccc(Cc2nc(NC(=O)c3ccccc3)n(C)c2Cc2ccc(OC)c(OC)c2)cc1` belongs > 40 µM.
`CNc1cccc(C(=O)Nc2nc(Cc3ccc(OC)cc3)c(Cc3ccc(OC)c(OC)c3)n2C)c1`: the IC50 in series [1] is > 40 µM.
Same read-out and setting: to `COc1ccc(Cc2nc(NC(=O)C3CCCCC3)n(C)c2Cc2ccc(OC)c(OC)c2)cc1` belongs > 40 µM.
With `COc1ccc(Cc2nc(NC(=O)C34C[C@H]5C[C@H](C3)C[C@@H](C4)C5)n(C)c2Cc2ccc(OC)c(OC)c2)cc1`, in series [1], the IC50 worked out at 25.7 µM. In addition, the outcome in series [2] was Active.
